In ChEMBL document CHEMBL4715697, “Synthesis and biological activity of benzamide DNA minor groove binders” (2016):

Columns and labels:
Assay type in all cases: functional
[1] = tested on: RPMI-8226; assay: Growth inhibition of human RPMI-8226 cells assessed as cell growth at 1 uM incubated for 48 hrs by sulforhodamine B assay relative to control; conditions: read-out: Activity
[2] = tested on: COLO 205; assay: Growth inhibition of human COLO 205 cells assessed as cell growth at 1 uM incubated for 48 hrs by sulforhodamine B assay relative to control; conditions: read-out: Activity
[3] = tested on: HCT-116; assay: Growth inhibition of human HCT-116 cells assessed as cell growth at 0.01 uM incubated for 48 hrs by sulforhodamine B assay relative to control; conditions: read-out: Activity
[4] = tested on: OVCAR-4; assay: Growth inhibition of human OVCAR-4 cells assessed as cell growth at 0.01 uM incubated for 48 hrs by sulforhodamine B assay relative to control; conditions: read-out: Activity
[5] = tested on: HT-29; assay: Growth inhibition of human HT-29 cells assessed as cell growth at 0.1 uM incubated for 48 hrs by sulforhodamine B assay relative to control; conditions: read-out: Activity
[6] = tested on: BT-549; assay: Growth inhibition of human BT-549 cells assessed as cell growth at 100 uM incubated for 48 hrs by sulforhodamine B assay relative to control; conditions: read-out: Activity
[7] = tested on: MOLT-4; assay: Growth inhibition of human MOLT-4 cells assessed as cell growth at 100 uM incubated for 48 hrs by sulforhodamine B assay relative to control; conditions: read-out: Activity
[8] = tested on: M14; assay: Growth inhibition of human M14 cells assessed as cell growth at 0.01 uM incubated for 48 hrs by sulforhodamine B assay relative to control; conditions: read-out: Activity
[9] = tested on: CCRF-CEM; assay: Growth inhibition of human CCRF-CEM cells assessed as cell growth at 100 uM incubated for 48 hrs by sulforhodamine B assay relative to control; conditions: read-out: Activity
[10] = tested on: HCT-116; assay: Growth inhibition of human HCT-116 cells assessed as cell growth at 100 uM incubated for 48 hrs by sulforhodamine B assay relative to control; conditions: read-out: Activity
[11] = tested on: KM12; assay: Growth inhibition of human KM12 cells incubated for 48 hrs by sulforhodamine B assay
[12] = tested on: SF-295; assay: Growth inhibition of human SF-295 cells assessed as cell growth at 1 uM incubated for 48 hrs by sulforhodamine B assay relative to control; conditions: read-out: Activity
[13] = tested on: SR; assay: Growth inhibition of human SR cells assessed as cell growth at 1 uM incubated for 48 hrs by sulforhodamine B assay relative to control; conditions: read-out: Activity
[14] = tested on: CAKI-1; assay: Growth inhibition of human CAKI-1 cells assessed as cell growth at 0.1 uM incubated for 48 hrs by sulforhodamine B assay relative to control; conditions: read-out: Activity
[15] = tested on: A498; assay: Growth inhibition of human A498 cells assessed as cell growth at 0.01 uM incubated for 48 hrs by sulforhodamine B assay relative to control; conditions: read-out: Activity
[16] = tested on: OVCAR-3; assay: Growth inhibition of human OVCAR-3 cells assessed as cell growth at 0.1 uM incubated for 48 hrs by sulforhodamine B assay relative to control; conditions: read-out: Activity
[17] = tested on: CCRF-CEM; assay: Growth inhibition of human CCRF-CEM cells assessed as cell growth at 1 uM incubated for 48 hrs by sulforhodamine B assay relative to control; conditions: read-out: Activity
[18] = tested on: SN12C; assay: Growth inhibition of human SN12C cells assessed as cell growth at 0.1 uM incubated for 48 hrs by sulforhodamine B assay relative to control; conditions: read-out: Activity
[19] = tested on: OVCAR-4; assay: Growth inhibition of human OVCAR-4 cells assessed as cell growth at 100 uM incubated for 48 hrs by sulforhodamine B assay relative to control; conditions: read-out: Activity
[20] = tested on: HCT-15; assay: Growth inhibition of human HCT-15 cells assessed as cell growth at 0.1 uM incubated for 48 hrs by sulforhodamine B assay relative to control; conditions: read-out: Activity
[21] = tested on: A498; assay: Growth inhibition of human A498 cells assessed as cell growth at 100 uM incubated for 48 hrs by sulforhodamine B assay relative to control; conditions: read-out: Activity
[22] = tested on: A549; assay: Growth inhibition of human A549/ATCC cells assessed as cell growth at 0.1 uM incubated for 48 hrs by sulforhodamine B assay relative to control; conditions: read-out: Activity
[23] = tested on: RPMI-8226; assay: Growth inhibition of human RPMI-8226 cells assessed as cell growth at 0.01 uM incubated for 48 hrs by sulforhodamine B assay relative to control; conditions: read-out: Activity
[24] = tested on: LOX IMVI; assay: Growth inhibition of human LOX IMVI cells assessed as cell growth at 1 uM incubated for 48 hrs by sulforhodamine B assay relative to control; conditions: read-out: Activity
[25] = tested on: SF-268; assay: Growth inhibition of human SF-268 cells assessed as cell growth at 0.1 uM incubated for 48 hrs by sulforhodamine B assay relative to control; conditions: read-out: Activity
[26] = tested on: Malme-3M; assay: Growth inhibition of human Malme-3M cells assessed as cell growth at 1 uM incubated for 48 hrs by sulforhodamine B assay relative to control; conditions: read-out: Activity
[27] = tested on: NCI/ADR-RES; assay: Growth inhibition of human NCI/ADR-RES cells incubated for 48 hrs by sulforhodamine B assay
[28] = tested on: NCI/ADR-RES; assay: Growth inhibition of human NCI/ADR-RES cells assessed as cell growth at 0.1 uM incubated for 48 hrs by sulforhodamine B assay relative to control; conditions: read-out: Activity
[29] = tested on: UACC-257; assay: Growth inhibition of human UACC-257 cells assessed as cell growth at 0.1 uM incubated for 48 hrs by sulforhodamine B assay relative to control; conditions: read-out: Activity
[30] = tested on: SF-295; assay: Growth inhibition of human SF-295 cells assessed as cell growth at 0.1 uM incubated for 48 hrs by sulforhodamine B assay relative to control; conditions: read-out: Activity
[31] = tested on: OVCAR-5; assay: Growth inhibition of human OVCAR-5 cells assessed as cell growth at 0.01 uM incubated for 48 hrs by sulforhodamine B assay relative to control; conditions: read-out: Activity
[32] = tested on: DU-145; assay: Growth inhibition of human DU-145 cells assessed as cell growth at 1 uM incubated for 48 hrs by sulforhodamine B assay relative to control; conditions: read-out: Activity
[33] = tested on: 786-0; assay: Growth inhibition of human 786-0 cells incubated for 48 hrs by sulforhodamine B assay
[34] = tested on: OVCAR-5; assay: Growth inhibition of human OVCAR-5 cells assessed as cell growth at 100 uM incubated for 48 hrs by sulforhodamine B assay relative to control; conditions: read-out: Activity
[35] = tested on: SNB-19; assay: Growth inhibition of human SNB-19 cells incubated for 48 hrs by sulforhodamine B assay
[36] = tested on: COLO 205; assay: Growth inhibition of human COLO 205 cells assessed as cell growth at 100 uM incubated for 48 hrs by sulforhodamine B assay relative to control; conditions: read-out: Activity
[37] = tested on: TK-10; assay: Growth inhibition of human TK-10 cells assessed as cell growth at 0.1 uM incubated for 48 hrs by sulforhodamine B assay relative to control; conditions: read-out: Activity
[38] = read-out: LC50 (the source's name)
[39] = read-out: pLC50 (the source's name) (converted)

CC(=O)Nc1cc(CCl)cc(NC(=O)c2ccc(C(=O)Nc3cccc(NC(=O)CCCN(C)C)c3)cc2)c1
growth at 1 µM [1]: 116% | growth at 1 µM [2]: 109% | growth at 0.01 µM [3]: 109% | growth at 0.01 µM [4]: 99% | growth at 0.1 µM [5]: 101% | growth at 100 µM [6]: 94% | growth at 100 µM [7]: 99% | growth at 0.01 µM [8]: 108% | growth at 100 µM [9]: -70% | growth at 100 µM [10]: 82% | GI50 ([11]; read-out: GI50): > 100 µM | CC50 [11, 38]: > 100 µM | TGI ([11]; read-out: TGI): > 100 µM | GI50 ([11]; read-out: pGI50 (converted)): > 100 µM | CC50 [11, 39]: > 100 µM | TGI ([11]; read-out: pTGI): > 100 µM | growth at 1 µM [12]: 70% | growth at 1 µM [13]: 118% | growth at 0.1 µM [14]: 98% | growth at 0.01 µM [15]: 67% | growth at 0.1 µM [16]: 108% | growth at 1 µM [17]: 107% | growth at 0.1 µM [18]: 104% | growth at 100 µM [19]: 89% | growth at 0.1 µM [20]: 88% | growth at 100 µM [21]: 62% | growth at 0.1 µM [22]: 99% | growth at 0.01 µM [23]: 110% | growth at 1 µM [24]: 86% | growth at 0.1 µM [25]: 101% | growth at 1 µM [26]: 97% | GI50 ([27]; read-out: GI50): > 100 µM | CC50 [27, 38]: > 100 µM | TGI ([27]; read-out: TGI): > 100 µM | GI50 ([27]; read-out: pGI50 (converted)): > 100 µM | CC50 [27, 39]: > 100 µM | TGI ([27]; read-out: pTGI): > 100 µM | growth at 0.1 µM [28]: 98% | growth at 0.1 µM [29]: 93% | growth at 0.1 µM [30]: 74% | growth at 0.01 µM [31]: 92% | growth at 1 µM [32]: 106% | GI50 ([33]; read-out: GI50): > 100 µM | LC50 ([33]; read-out: LC50): > 100 µM | TGI ([33]; read-out: TGI): > 100 µM | GI50 ([33]; read-out: pGI50 (converted)): > 100 µM | LC50 ([33]; read-out: pLC50 (converted)): > 100 µM | TGI ([33]; read-out: pTGI): > 100 µM | growth at 100 µM [34]: 91% | GI50 ([35]; read-out: GI50): > 100 µM | CC50 [35, 38]: > 100 µM | TGI ([35]; read-out: TGI): > 100 µM | GI50 ([35]; read-out: pGI50 (converted)): > 100 µM | CC50 [35, 39]: > 100 µM | TGI ([35]; read-out: pTGI): > 100 µM | growth at 100 µM [36]: 100% | growth at 0.1 µM [37]: 106%

CC(=O)Nc1cc(CO[Si](C)(C)C(C)(C)C)cc(NC(=O)c2ccc(C(=O)Nc3cccc(NC(=O)CCCN(C)C)c3)cc2)c1
growth at 1 µM [1]: 110% | growth at 1 µM [2]: 109% | growth at 0.01 µM [3]: 104% | growth at 0.01 µM [4]: 95% | growth at 0.1 µM [5]: 103% | growth at 100 µM [6]: 86% | growth at 100 µM [7]: 98% | growth at 0.01 µM [8]: 97% | growth at 100 µM [9]: 112% | growth at 100 µM [10]: 85% | GI50 ([11]; read-out: GI50): > 75 µM | CC50 [11, 38]: > 75 µM | TGI ([11]; read-out: TGI): > 75 µM | GI50 ([11]; read-out: pGI50 (converted)): > 75.9 µM | CC50 [11, 39]: > 75.9 µM | TGI ([11]; read-out: pTGI): > 75.9 µM | growth at 1 µM [12]: 127% | growth at 1 µM [13]: 94% | growth at 0.1 µM [14]: 91% | growth at 0.01 µM [15]: 70% | growth at 0.1 µM [16]: 109% | growth at 1 µM [17]: 98% | growth at 0.1 µM [18]: 95% | growth at 100 µM [19]: 78% | growth at 0.1 µM [20]: 91% | growth at 100 µM [21]: 51% | growth at 0.1 µM [22]: 99% | growth at 0.01 µM [23]: 95% | growth at 1 µM [24]: 94% | growth at 0.1 µM [25]: 100% | growth at 1 µM [26]: 94% | GI50 ([27]; read-out: GI50): > 75 µM | CC50 [27, 38]: > 75 µM | TGI ([27]; read-out: TGI): > 75 µM | GI50 ([27]; read-out: pGI50 (converted)): > 75.9 µM | CC50 [27, 39]: > 75.9 µM | TGI ([27]; read-out: pTGI): > 75.9 µM | growth at 0.1 µM [28]: 97% | growth at 0.1 µM [29]: 90% | growth at 0.1 µM [30]: 123% | growth at 0.01 µM [31]: 93% | growth at 1 µM [32]: 88% | GI50 ([33]; read-out: GI50): > 75 µM | LC50 ([33]; read-out: LC50): > 75 µM | TGI ([33]; read-out: TGI): > 75 µM | GI50 ([33]; read-out: pGI50 (converted)): > 75.9 µM | LC50 ([33]; read-out: pLC50 (converted)): > 75.9 µM | TGI ([33]; read-out: pTGI): > 75.9 µM | growth at 100 µM [34]: 79% | GI50 ([35]; read-out: GI50): > 75 µM | CC50 [35, 38]: > 75 µM | TGI ([35]; read-out: TGI): > 75 µM | GI50 ([35]; read-out: pGI50 (converted)): > 75.9 µM | CC50 [35, 39]: > 75.9 µM | TGI ([35]; read-out: pTGI): > 75.9 µM | growth at 100 µM [36]: 80% | growth at 0.1 µM [37]: 99%
